Laboratory results taken from US20180338964A1, “3-(PIPERIDIN-4-YL)-ISOXAZOL-3(OH)-ONES FOR TREATMENT OF DERMATOLOGIC DISORDERS” (Emeriti Pharma AB, priority 2014, published 2018).

What was measured:
plasminogen kringle 1 = biological target: T1, plasminogen kringle 1 (Homo sapiens, UniProt P00747); assay: NMR competition assay (1D T1rho) for binding to plasminogen kringle 1, tranexamic acid as reference
T1 construct: Signal intensities from free tranexamic acid are reduced when recombinant kringle 1 protein is added
Method: The NMR experiment identifies compounds binding to the lysine binding pocket in a competition assay where tranexamic acid was used as reference compound and 1D T1rho experiments were used for detection. Signal intensities from free tranexamic acid are reduced when recombinant kringle 1 protein is added due to binding to this protein. The NMR signals from tranexamic acid regain intensity when an added compound displaces it from the lysine binding pocket of kringle 1.
The compounds were run one-by-one at a concentration between 15 and 300 μM. The concentration of protein and tranexamic acid were 10 and 100 μM respectively. A test compound resulting in at least 10% increase in tranexamic acid intensity (displacement) was considered binding to kringle 1.

[1] = system: fibrinolysis in human plasma clot (tPA activation of plasminogen); details: citrated platelet poor human plasma, tPA 80 ng/ml, 37° C.; for IC50: read-out: IC50 (clot-lysis time prolonged to twice the vehicle value); for IC90: read-out: IC90 (clot-lysis time prolonged to nine times the vehicle value)
[2] = system: stratum corneum protease activity; details: ˜13% EACA (1 M) cream, rosacea patients; cited from earlier work
[3] = treatment of bleeding disorders; cited from earlier work
[4] = oral TXA; cited from earlier work
melasma = details: cited from earlier work
stratum corneum barrier = details: topically applied, healthy volunteer, after experimental damage to stratum corneum; cited from earlier work
[5] = system: stratum corneum barrier function; details: topical 3% (˜0.2M) TXA, rosacea patients; cited from earlier work

T1 sequence (P00747 103-181 limits assumed): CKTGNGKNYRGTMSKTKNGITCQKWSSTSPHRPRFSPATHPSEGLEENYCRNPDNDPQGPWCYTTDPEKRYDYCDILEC

SMILES	Kd (plasminogen kringle 1) [nM]	further results
CS(=O)(=O)c1ccc(C[C@H]2C[C@@H](c3cc(=O)[nH]o3)CCN2)cc1 [5-[(2R,4S)-2-[(4-methanesulfonylphenyl)methyl]piperidin-4-yl]-2,3-dihydro-1,2-oxazol-3-one]	400	
O=c1cc([C@H]2CCN[C@@H](c3ccc(C(F)(F)F)cc3F)C2)o[nH]1 [5-[(2R,4S)-2-[2-fluoro-4-(trifluoromethyl)phenyl]piperidin-4-yl]-2,3-dihydro-1,2-oxazol-3-one]	300	
CC(C)(C)c1ccc(C[C@H]2C[C@@H](c3cc(=O)[nH]o3)CCN2)cc1 [5-[(2R,4S)-2-[(4-tert-butylphenyl)methyl]piperidin-4-yl]-2,3-dihydro-1,2-oxazol-3-one]	300	
O=c1cc([C@H]2CCN[C@@H](c3ccc(OC(F)(F)F)cc3F)C2)o[nH]1 [5-[(2R,4S)-2-[2-fluoro-4-(trifluoromethoxy)phenyl]piperidin-4-yl]-2,3-dihydro-1,2-oxazol-3-one]	300	
O=c1cc([C@H]2CCN[C@@H](c3ccc(C(F)(F)F)nc3)C2)o[nH]1 [5-[(2R,4S)-2-[6-(trifluoromethyl)pyridin-3-yl]piperidin-4-yl]-2,3-dihydro-1,2-oxazol-3-one]	280	
O=c1cc([C@H]2CCN[C@@H](c3ccc(C(F)(F)F)cc3)C2)o[nH]1 [5-[(2R,4S)-2-[4-(trifluoromethyl)phenyl]piperidin-4-yl]-2,3-dihydro-1,2-oxazol-3-one]	100	
Cc1cc([C@H]2C[C@@H](c3cc(=O)[nH]o3)CCN2)ccc1C(F)(F)F [5-[(2R,4S)-2-[3-methyl-4-(trifluoromethyl)phenyl]piperidin-4-yl]-2,3-dihydro-1,2-oxazol-3-one]	100	
CC(C)(C)c1ccc(C[C@@H]2C[C@@H](c3cc(=O)[nH]o3)CCN2)cc1 [5-[(2S,4S)-2-[(4-tert-butylphenyl)methyl]piperidin-4-yl]-2,3-dihydro-1,2-oxazol-3-one]	100	
Cn1nnc([C@H]2C[C@@H](c3cc(=O)[nH]o3)CCN2)n1 [5-[(2R,4S)-2-(2-methyl-2H-1,2,3,4-tetrazol-5-yl)piperidin-4-yl]-2,3-dihydro-1,2-oxazol-3-one]	200	
O=c1cc([C@H]2CCN[C@@H](c3ccc(F)cc3)C2)o[nH]1 [5-[(2R,4S)-2-(4-fluorophenyl)piperidin-4-yl]-2,3-dihydro-1,2-oxazol-3-one]	600	
O=c1cc([C@H]2CCN[C@@H](Cc3ccc(C(F)(F)F)c(F)c3)C2)o[nH]1 [5-[(2R,4S)-2-{[3-fluoro-4-(trifluoromethyl)phenyl]methyl}piperidin-4-yl]-2,3-dihydro-1,2-oxazol-3-one]	240	
NCCCCCC(=O)O [EACA, 6-aminohexanoic acid]		IC50 [1]: 72700 nM; IC90 [1]: 637000 nM; stratum corneum protease activity [2]: reduction in stratum corneum protease activity
O=c1cc([C@H]2CCN[C@@H](c3ccc(Cl)cc3Cl)C2)o[nH]1 [5-[(2R,4S)-2-(2,4-dichlorophenyl)piperidin-4-yl]-2,3-dihydro-1,2-oxazol-3-one]	200	
Cc1cc(C(F)(F)F)ccc1[C@H]1C[C@@H](c2cc(=O)[nH]o2)CCN1 [5-[(2R,4S)-2-[2-methyl-4-(trifluoromethyl)phenyl]piperidin-4-yl]-2,3-dihydro-1,2-oxazol-3-one]	300	
CC(C)(C)c1cccc([C@H]2C[C@@H](c3cc(=O)[nH]o3)CCN2)c1 [5-[(2R,4S)-2-(3-tert-butylphenyl)piperidin-4-yl]-2,3-dihydro-1,2-oxazol-3-one]	280	
O=c1cc([C@H]2CCN[C@@H](COC3CCCCC3)C2)o[nH]1 [5-[(2R,4S)-2-[(cyclohexyloxy)methyl]piperidin-4-yl]-2,3-dihydro-1,2-oxazol-3-one]	300	
CS(=O)(=O)c1ccc([C@H]2C[C@@H](c3cc(=O)[nH]o3)CCN2)cc1 [5-[(2R,4S)-2-(4-methanesulfonylphenyl)piperidin-4-yl]-2,3-dihydro-1,2-oxazol-3-one]	200	
O=c1cc([C@H]2CCN[C@@H](Cc3ccc(F)c(F)c3)C2)o[nH]1 [5-[(2R,4S)-2-[(3,4-difluorophenyl)methyl]piperidin-4-yl]-2,3-dihydro-1,2-oxazol-3-one]	100	
O=c1cc([C@H]2CCN[C@@H](c3ccc(Cl)cc3)C2)o[nH]1 [5-[(2R,4S)-2-(4-chlorophenyl)piperidin-4-yl]-2,3-dihydro-1,2-oxazol-3-one]	100	
O=c1cc([C@H]2CCN[C@@H](Cc3ccc(F)cc3F)C2)o[nH]1 [5-[(2R,4S)-2-[(2,4-difluorophenyl)methyl]piperidin-4-yl]-2,3-dihydro-1,2-oxazol-3-one]	100	
O=c1cc([C@H]2CCN[C@@H](CN3CCC[C@H]3C(F)(F)F)C2)o[nH]1 [5-[(2R,4S)-2-{[(2S)-2-(trifluoromethyl)pyrrolidin-1-yl]methyl}piperidin-4-yl]-2,3-dihydro-1,2-oxazol-3-one]	400	
CC(C)(C)c1cc(C[C@H]2C[C@@H](c3cc(=O)[nH]o3)CCN2)cc(C(C)(C)C)c1 [5-[(2R,4S)-2-[(3,5-di-tert-butylphenyl)methyl]piperidin-4-yl]-2,3-dihydro-1,2-oxazol-3-one]	1000	
NCC1CCC(C(=O)O)CC1 (stereo not shown) [TXA, 4-(aminomethyl)cyclohexane-1-carboxylic acid]		IC50 [1]: 6660 nM; IC90 [1]: 55400 nM; therapeutic plasma concentration [3]: 30 to 90 µM; allergic skin reaction, fraction of treated [4]: < 1/100; effect on melasma (melasma; topical 5% (˜0.3M) TXA versus vehicle): no effect; erythema (melasma; topical 5% (˜0.3M) TXA): produced erythema; stratum corneum barrier recovery (stratum corneum barrier): enhance stratum corneum barrier recovery; stratum corneum barrier function [5]: improved stratum corneum barrier function
O=c1cc([C@H]2CCN[C@@H](Cc3cc(F)c(F)c(F)c3)C2)o[nH]1 [5-[(2R,4S)-2-[(3,4,5-trifluorophenyl)methyl]piperidin-4-yl]-2,3-dihydro-1,2-oxazol-3-one]	140	
O=c1cc([C@H]2CCN[C@@H](c3cc(F)c(F)cc3F)C2)o[nH]1 [5-[(2R,4S)-2-(2,4,5-trifluorophenyl)piperidin-4-yl]-2,3-dihydro-1,2-oxazol-3-one]	300	
O=c1cc([C@H]2CCN[C@@H](CN3CCn4c(nnc4C(F)(F)F)C3)C2)o[nH]1 [5-[(2R,4S)-2-{[3-(trifluoromethyl)-5H,6H,7H,8H-[1,2,4]triazolo[4,3-a]pyrazin-7-yl]methyl}piperidin-4-yl]-2,3-dihydro-1,2-oxazol-3-one]	240	
O=c1cc([C@H]2CCN[C@@H](c3ccc(F)cc3F)C2)o[nH]1 [5-[(2R,4S)-2-(2,4-difluorophenyl)piperidin-4-yl]-2,3-dihydro-1,2-oxazol-3-one]	200	
O=c1cc([C@H]2CCN[C@@H](c3ccc(C(F)(F)F)c(F)c3)C2)o[nH]1 [5-[(2R,4S)-2-[3-fluoro-4-(trifluoromethyl)phenyl]piperidin-4-yl]-2,3-dihydro-1,2-oxazol-3-one]	200	
